# Reference: PubChem BioAssay AID212 (DTP/NCI, 2004)
# Results filed as inconclusive are left out.
# Test system: BDF1 mice, colon carcinoma 38 sc, T/C %
# Experiment: NCI In Vivo Anticancer Drug Screen. Data for tumor model Colon Carcinoma 38 (subcutaneous) in B6D2F1 (BDF1) mice
# Conditions: endpoint: median tumor weight (est.), schedule: Q07DX002 (ip), higher = larger tumour
# Procedure, shortened: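 Mice with transplanted tumors are treated with compound or vehicle. Survival or tumor size is then measured in both groups. The ratio of treated to control gives the reported figure.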
smiles,measurement,setting,value
CCN1/C(=C/C=C/C=C\C=C\c2sc3ccc4ccccc4c3[n+]2CC)Sc2ccc3ccccc3c21,T/C,"dose: 2.5 mg/kg/injection, vehicle: saline with Tween-80",105 % of control
same,T/C,"dose: 5.0 mg/kg/injection, vehicle: saline with Tween-80",89 % of control
same,T/C,"dose: 10.0 mg/kg/injection, vehicle: saline with Tween-80",69 % of control
same,T/C,"dose: 20.0 mg/kg/injection, vehicle: saline with Tween-80",76 % of control
COc1cc([C@@H]2c3cc4c(c(O)c3C[C@H]3COC(=O)[C@@H]32)OCO4)cc(OC)c1OC,T/C,"dose: 1.0 mg/kg/injection, vehicle: saline",81 % of control
same,T/C,"dose: 2.0 mg/kg/injection, vehicle: saline",67 % of control
same,T/C,"dose: 4.0 mg/kg/injection, vehicle: saline",76 % of control
same,T/C,"dose: 8.0 mg/kg/injection, vehicle: saline",73 % of control
same,T/C,"dose: 16.0 mg/kg/injection, vehicle: saline",70 % of control
CN(C)CCOc1ccc2c(c1)C/C(=C/c1ncc([N+](=O)[O-])n1C)C2=O,T/C,"dose: 12.5 mg/kg/injection, vehicle: saline with Tween-80",76 % of control
same,T/C,"dose: 25.0 mg/kg/injection, vehicle: saline with Tween-80",94 % of control
same,T/C,"dose: 50.0 mg/kg/injection, vehicle: saline with Tween-80",106 % of control
same,T/C,"dose: 100.0 mg/kg/injection, vehicle: saline with Tween-80",91 % of control
same,T/C,"dose: 200.0 mg/kg/injection, vehicle: saline with Tween-80",106 % of control
same,T/C,"dose: 400.0 mg/kg/injection, vehicle: saline with Tween-80",50 % of control
CCC12C[N+]3([O-])CCc4c([nH]c5ccccc45)C(C(=O)OC)(c4cc5c(cc4OC)N(C)C4C(O)(C(=O)OC)C(OC(C)=O)C6(CC)C=CCN7CCC54C76)CC(C3)C1O2 (centres undefined),T/C,"dose: 1.25 mg/kg/injection, vehicle: water",113 % of control
same,T/C,"dose: 2.5 mg/kg/injection, vehicle: water",90 % of control
same,T/C,"dose: 5.0 mg/kg/injection, vehicle: water",84 % of control
same,T/C,"dose: 10.0 mg/kg/injection, vehicle: water",108 % of control
same,T/C,"dose: 20.0 mg/kg/injection, vehicle: water",82 % of control
same,T/C,"dose: 40.0 mg/kg/injection, vehicle: water",94 % of control
COc1cccc2c1C(=O)c1c(O)c3c(c(O)c1C2=O)C[C@@](O)(C(O)CO)C[C@@H]3OC1CC(N(Cc2ccccc2)Cc2ccccc2)C(O)C(C)O1 (some centres undefined),T/C,"dose: 12.5 mg/kg/injection, vehicle: water",75 % of control
same,T/C,"dose: 25.0 mg/kg/injection, vehicle: water",72 % of control
same,T/C,"dose: 50.0 mg/kg/injection, vehicle: water",36 % of control
CC(=O)Oc1ccccc1C(=O)O,T/C,"dose: 32.0 mg/kg/injection, vehicle: saline with Tween-80",102 % of control
same,T/C,"dose: 64.0 mg/kg/injection, vehicle: saline with Tween-80",53 % of control
same,T/C,"dose: 72.0 mg/kg/injection, vehicle: saline with Tween-80",122 % of control
same,T/C,"dose: 128.0 mg/kg/injection, vehicle: saline with Tween-80",76 % of control
same,T/C,"dose: 144.0 mg/kg/injection, vehicle: saline with Tween-80",118 % of control
same,T/C,"dose: 256.0 mg/kg/injection, vehicle: saline with Tween-80",97 % of control
same,T/C,"dose: 518.0 mg/kg/injection, vehicle: saline with Tween-80",90 % of control
same,T/C,"dose: 1152.0 mg/kg/injection, vehicle: saline with Tween-80",118 % of control
O=C(/C=C(\Cl)C(=O)NO)NO,T/C,"dose: 12.5 mg/kg/injection, vehicle: saline",154 % of control
same,T/C,"dose: 12.5 mg/kg/injection, vehicle: suspension in saline",82 % of control
same,T/C,"dose: 25.0 mg/kg/injection, vehicle: saline",159 % of control
same,T/C,"dose: 25.0 mg/kg/injection, vehicle: suspension in saline",101 % of control
same,T/C,"dose: 50.0 mg/kg/injection, vehicle: saline",175 % of control
same,T/C,"dose: 100.0 mg/kg/injection, vehicle: saline",119 % of control
same,T/C,"dose: 100.0 mg/kg/injection, vehicle: suspension in saline",94 % of control
